Holding throughout (type): physicochemical
A short description of data set [1]: water solubility of the crystalline solid. As to conditions: pH 7.0 (phosphate buffer), 37° C., after 30 minutes.
Data set [2] can be described thus: accelerated stability study (75% relative humidity, 40° C., one week). As to conditions: one week at 75% relative humidity. The method, then: An accelerated stability study was conducted on the crystalline solid. Approximately 10 mg of crystalline solid was placed into a 4 mL vial, and the vial was covered with a Kimwipe. The vial was stored for one week inside a stability chamber producing a relative humidity of 75% at 40° C.

Data set [3] is described as follows: hygroscicity by dynamic vapor sorption. As to conditions: transitioned from 5% to 95% relative humidity. The method, then:
Dynamic vapor sorption was performed using a Q5000SA. The sample (5-15 mg) was loaded into a metallic quartz sample pan, suspended from a microbalance, and exposed to a humidified stream of nitrogen gas. Weight changes were relative to a matching empty reference pan opposite the sample, suspended from the microbalance. The sample was held for a minimum of 10 min at each humidity level and only progressed to the next humidity level if there was <0.002% change in weight between measurements (interval: 5 s) or 45 min had elapsed (for 5-65% RH) or 2 hours had elapsed (for 80 and 95% RH). The following program was used: • 1. Equilibration at 50% RH • 2. 50% to 5% (50%, 35%, 20%, and 5%) • 3. 5% to 95% (5%, 20%, 35%, 50%, 65%, 80%, and 95%) • 4. 95% to 5% (95%, 80%, 65%, 50%, 35%, 20%, and 5%) • 5. 5% to 50% (5%, 20%, 35%, and 50%).
The crystalline solid was analyzed for hygroscopicity.

Take “p-Toluenesulfonic Acid Salt of (S)-1-((R)-3-amino-1-(4-((6-amino-9H-purin-9-yl)methyl)-6-(2,5-difluoro-4-methoxyphenyl)pyridin-3-yl)piperidin-3-yl)-2,2-difluoroethan-1-ol [Example 3]”: the “water solubility (mg/mL of the free base (S)-1-((R)-3-amino-1-(...)piperidin-3-yl)-2,2-difluoroethan-1-ol)” value in data set [1] is recorded as 1.61 mg/mL.
Take “Maleic Acid Salt of (S)-1-((R)-3-amino-1-(4-((6-amino-9H-purin-9-yl)methyl)-6-(2,5-difluoro-4-methoxyphenyl)pyridin-3-yl)piperidin-3-yl)-2,2-difluoroethan-1-ol [Example 1]”: the “change of crystalline form by XRPD after the stability study” value in data set [2] is reported as “no change of the crystalline form”. Further, the “HPLC purity after the stability study” value in data set [2] (99.59 area percent before the study) is 99.56 area percent. In addition, the “increase in weight by dynamic vapor sorption” value in data set [3] is 0.507%.

The record behind these values is patent US20260152502A1, “PIPERIDINYL-METHYL-PURINE AMINE SALTS, CRYSTALLINE FORMS, AND THEIR USE IN TREATING MEDICAL DISEASES AND CONDITIONS” (K36 THERAPEUTICS, INC., priority 2022, published 2026).
